From the NIST ThermoML archive (doi:10.1016/j.jct.2018.09.027)

Experiment: molar heat capacity at constant pressure
Settings: 100 kPa, Crystal, DSC

O=c1oc2c(O)c(O)cc3c(=O)oc4c(O)c(O)cc1c4c23 [2,3,7,8-tetrahydroxychromeno[5,4,3-cde]chromene-5,10-dione]
Settings | molar heat capacity at constant pressure [J/K/mol]
260.15 K | 292.07
261.15 K | 292.68
262.15 K | 293.58
263.15 K | 294.64
264.15 K | 295.85
265.15 K | 297.06
266.15 K | 297.97
267.15 K | 298.87
268.15 K | 299.93
269.15 K | 301.59
270.15 K | 303.41
271.15 K | 303.41
272.15 K | 304.01
273.15 K | 305.37
274.15 K | 307.49
275.15 K | 308.39
276.15 K | 308.09
277.15 K | 308.54
278.15 K | 310.36
279.15 K | 311.57
280.15 K | 311.26
281.15 K | 312.62
282.15 K | 314.29
283.15 K | 315.19
284.15 K | 315.95
285.15 K | 316.25
286.15 K | 317.16
287.15 K | 318.97
288.15 K | 320.33
289.15 K | 319.72
290.15 K | 320.48
291.15 K | 321.84
292.15 K | 323.35
293.15 K | 323.05
294.15 K | 324.26
295.15 K | 325.47
296.15 K | 326.4
297.15 K | 327.73
298.15 K | 328.85
299.15 K | 329.64
300.15 K | 330.7
301.15 K | 331.91
302.15 K | 332.12
303.15 K | 333.63
304.15 K | 334.99
305.15 K | 335.69
306.15 K | 336.45
307.15 K | 337.53
308.15 K | 338.02
309.15 K | 339.27
310.15 K | 339.49
311.15 K | 340.77
312.15 K | 341.16
313.15 K | 342.26
314.15 K | 343.3
315.15 K | 343.78
316.15 K | 345.03
317.15 K | 346.85
318.15 K | 347.5
319.15 K | 348.3
320.15 K | 349.21
321.15 K | 350.81
322.15 K | 351.92
323.15 K | 352.53
324.15 K | 353.13
325.15 K | 354.43
326.15 K | 355.55
327.15 K | 356.86
328.15 K | 357.07
329.15 K | 358.38
330.15 K | 359.69
331.15 K | 361.39
332.15 K | 362.3
333.15 K | 363.1
334.15 K | 364.21
335.15 K | 365.02
336.15 K | 366.23
337.15 K | 367.13
338.15 K | 368.24
339.15 K | 369.55
340.15 K | 370.36
341.15 K | 370.96
342.15 K | 371.07
343.15 K | 372.48
344.15 K | 373.08
345.15 K | 373.69
346.15 K | 374.1
347.15 K | 375.31
348.15 K | 376.31
349.15 K | 377.02
350.15 K | 378.82
351.15 K | 379.03
352.15 K | 379.54
353.15 K | 381.35
354.15 K | 383.99
355.15 K | 385.91
356.15 K | 385.3
357.15 K | 386.51
358.15 K | 387.62
359.15 K | 388.02
360.15 K | 390.04
361.15 K | 391.3
362.15 K | 392.55
363.15 K | 393.1
364.15 K | 393.5
365.15 K | 394.2
366.15 K | 395.1
367.15 K | 396
368.15 K | 396.5
369.15 K | 397.3
370.15 K | 397.8
371.15 K | 398
372.15 K | 399.5
373.15 K | 400.1
374.15 K | 401.2
375.15 K | 402.5
376.15 K | 403.1
377.15 K | 403.8
378.15 K | 404.5
379.15 K | 405.3
380.15 K | 406.12
381.15 K | 407.6
382.15 K | 408.2
383.15 K | 409.5
384.15 K | 410.1
385.15 K | 411.31
386.15 K | 412.22
387.15 K | 413.52
388.15 K | 414.82
389.15 K | 415.43
390.15 K | 416.64
391.15 K | 417.54
392.15 K | 418.85
393.15 K | 419.15
394.15 K | 420.36
395.15 K | 421.26
396.15 K | 421.57
397.15 K | 422.17
398.15 K | 423.08
399.15 K | 423.98
400.15 K | 424.59
401.15 K | 424.59
402.15 K | 425.19
403.15 K | 426.4
404.15 K | 427.31
405.15 K | 427
406.15 K | 427.31
407.15 K | 427.91
408.15 K | 429.42
409.15 K | 430.03
410.15 K | 430.78
411.15 K | 431.39
412.15 K | 432.44
413.15 K | 432.9
414.15 K | 433.5
415.15 K | 434.56
416.15 K | 435.77
417.15 K | 436.2
418.15 K | 437
419.15 K | 438.2
420.15 K | 439.1
421.15 K | 440.5
422.15 K | 441.2
423.15 K | 442.3
424.15 K | 443.93
425.15 K | 444.5
426.15 K | 444.8
427.15 K | 445.1
428.15 K | 445.9
429.15 K | 446.2
430.15 K | 446.8
431.15 K | 447.3
432.15 K | 448.2
433.15 K | 448.6
434.15 K | 449.4
435.15 K | 450.58
436.15 K | 451.79
437.15 K | 452.39
438.15 K | 452.69
439.15 K | 452.99
440.15 K | 453.9
441.15 K | 454.71
442.15 K | 455.32
443.15 K | 455.41
444.15 K | 455.71
445.15 K | 456.02
446.15 K | 457.53
447.15 K | 457.83
448.15 K | 458.43
449.15 K | 459.04
450.15 K | 459.64
451.15 K | 459.94
452.15 K | 460.2
453.15 K | 460.85
454.15 K | 461.14
455.15 K | 460.85
456.15 K | 461.3
457.15 K | 461.76
458.15 K | 462.11
459.15 K | 462.61
460.15 K | 463.82
461.15 K | 464.57
462.15 K | 465.08
463.15 K | 466.38
464.15 K | 467.05
465.15 K | 468.71
466.15 K | 468.5
467.15 K | 469
468.15 K | 469.5
469.15 K | 470.1
470.15 K | 470.8
471.15 K | 471.2
472.15 K | 471.5
473.15 K | 472.94
474.15 K | 473.85
475.15 K | 474.15
476.15 K | 474.75
477.15 K | 475.05
478.15 K | 476.26
479.15 K | 477.17
480.15 K | 477.47
481.15 K | 478.38
482.15 K | 479.59
483.15 K | 480.19
484.15 K | 480.39
485.15 K | 481.19
486.15 K | 482
487.15 K | 482.31
488.15 K | 482.61
489.15 K | 483.31
490.15 K | 484.21
491.15 K | 485.63
492.15 K | 486.93
493.15 K | 487.54
494.15 K | 488.84
495.15 K | 489.26
496.15 K | 489.26
497.15 K | 489.56
498.15 K | 489.26
499.15 K | 490.77
500.15 K | 491.28
501.15 K | 492.18
502.15 K | 493.28
503.15 K | 494.19
504.15 K | 495
505.15 K | 495.3
506.15 K | 495
507.15 K | 494.7
508.15 K | 495
509.15 K | 495
510.15 K | 495.3
511.15 K | 496
512.15 K | 497.72
513.15 K | 497.82
514.15 K | 498.32
515.15 K | 499.23
516.15 K | 499.5
517.15 K | 500.1
518.15 K | 501.3
519.15 K | 501.8
520.15 K | 502.5
521.15 K | 503.1
522.15 K | 503.6
